# US10202361B2, “Pyridazinones as herbicides” (E I DU PONT DE NEMOURS AND COMPANY, priority 2014, dated 2019)
# Assays:
# Assay in all cases: Test E pre-/postemergence greenhouse herbicide test
# Assay type in all cases: in vivo
# [1] = test system: johnsongrass (Sorghum halepense); conditions: Preemergence, scale 0 to 100
# How it was run: (§1)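 Pre- and postemergence greenhouse spray; compound in non-phytotoxic solvent + surfactant. Pre: silt loam soil at planting. Post: 1- to 4-leaf plants, 2 to 18 cm, peat-based medium. Visual score 0–100 vs untreated controls at 14 to 21 d.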
# [2] = test system: crabgrass, Brazil (Brazilian crabgrass, Digitaria horizontalis); conditions: scale 0 to 100
# How it was run: as §1
# [3] = test system: waterhemp (common waterhemp, Amaranthus rudis); conditions: scale 0 to 100
# How it was run: as §1
# [4] = test system: soybean (Glycine max); conditions: scale 0 to 100
# How it was run: as §1
# [5] = test system: arrowleaf sida (Sida rhombifolia); conditions: scale 0 to 100
# How it was run: as §1
# [6] = test system: field bindweed (Convolvulus arvensis); conditions: scale 0 to 100
# How it was run: as §1
# [7] = test system: morningglory (Ipomoea coccinea); conditions: Preemergence, scale 0 to 100
# How it was run: as §1
# [8] = test system: beggarticks (hairy beggarticks, Bidens pilosa); conditions: scale 0 to 100
# How it was run: as §1
# [9] = test system: pigweed, palmer (palmer pigweed, Amaranthus palmeri); conditions: scale 0 to 100
# How it was run: as §1
# [10] = test system: ryegrass, Italian (Italian ryegrass, Lolium multiflorum); conditions: scale 0 to 100
# How it was run: as §1
# [11] = test system: sandbur (southern sandbur, Cenchrus echinatus); conditions: scale 0 to 100
# How it was run: as §1
# [12] = test system: ragweed (common ragweed, Ambrosia elatior); conditions: Preemergence, scale 0 to 100
# How it was run: as §1
# [13] = test system: nightshade (eastern black nightshade, Solanum ptycanthum); conditions: Preemergence, scale 0 to 100
# How it was run: as §1
# [14] = test system: lambsquarters (Chenopodium album); conditions: Preemergence, scale 0 to 100
# How it was run: as §1
# [15] = test system: barnyardgrass (Echinochloa crus-galli); conditions: scale 0 to 100
# How it was run: as §1
smiles,measurement,setting,value
"COc1cc(=O)n(-c2ccc(F)cc2)nc1Cc1ccnc(C(F)(F)F)c1 [Compound 17, 2-(4-fluorophenyl)-5-methoxy-6-[[2-(trifluoromethyl)-4-pyridinyl]methyl]-3 (2H)-pyridazinone]",Plant response rating: Johnsongrass,[1]; 16 g ai/ha,0
same,Plant response rating: Johnsongrass,[1]; 31 g ai/ha,10
same,Plant response rating: Johnsongrass,[1]; 62 g ai/ha,35
same,Plant response rating: Johnsongrass,[1]; 125 g ai/ha,75
same,Plant response rating: Johnsongrass,[1]; 250 g ai/ha,90
same,"Plant response rating: Crabgrass, Brazil","[2]; Postemergence, 16 g ai/ha",20
same,"Plant response rating: Crabgrass, Brazil","[2]; Postemergence, 31 g ai/ha",20
same,"Plant response rating: Crabgrass, Brazil","[2]; Postemergence, 62 g ai/ha",20
same,"Plant response rating: Crabgrass, Brazil","[2]; Postemergence, 125 g ai/ha",30
same,"Plant response rating: Crabgrass, Brazil","[2]; Postemergence, 250 g ai/ha",70
same,"Plant response rating: Crabgrass, Brazil","[2]; Preemergence, 16 g ai/ha",100
same,"Plant response rating: Crabgrass, Brazil","[2]; Preemergence, 31 g ai/ha",100
same,"Plant response rating: Crabgrass, Brazil","[2]; Preemergence, 62 g ai/ha",100
same,"Plant response rating: Crabgrass, Brazil","[2]; Preemergence, 125 g ai/ha",100
same,"Plant response rating: Crabgrass, Brazil","[2]; Preemergence, 250 g ai/ha",100
same,Plant response rating: Waterhemp,"[3]; Postemergence, 16 g ai/ha",40
same,Plant response rating: Waterhemp,"[3]; Postemergence, 31 g ai/ha",50
same,Plant response rating: Waterhemp,"[3]; Postemergence, 62 g ai/ha",80
same,Plant response rating: Waterhemp,"[3]; Postemergence, 125 g ai/ha",85
same,Plant response rating: Waterhemp,"[3]; Postemergence, 250 g ai/ha",95
same,Plant response rating: Waterhemp,"[3]; Preemergence, 16 g ai/ha",75
same,Plant response rating: Waterhemp,"[3]; Preemergence, 31 g ai/ha",98
same,Plant response rating: Waterhemp,"[3]; Preemergence, 62 g ai/ha",98
same,Plant response rating: Waterhemp,"[3]; Preemergence, 125 g ai/ha",98
same,Plant response rating: Waterhemp,"[3]; Preemergence, 250 g ai/ha",98
same,Plant response rating: Soybean,"[4]; Postemergence, 16 g ai/ha",30
same,Plant response rating: Soybean,"[4]; Postemergence, 31 g ai/ha",30
same,Plant response rating: Soybean,"[4]; Postemergence, 62 g ai/ha",50
same,Plant response rating: Soybean,"[4]; Postemergence, 125 g ai/ha",60
same,Plant response rating: Soybean,"[4]; Postemergence, 250 g ai/ha",85
same,Plant response rating: Soybean,"[4]; Preemergence, 16 g ai/ha",0
same,Plant response rating: Soybean,"[4]; Preemergence, 31 g ai/ha",0
same,Plant response rating: Soybean,"[4]; Preemergence, 62 g ai/ha",0
same,Plant response rating: Soybean,"[4]; Preemergence, 125 g ai/ha",65
same,Plant response rating: Soybean,"[4]; Preemergence, 250 g ai/ha",80
same,Plant response rating: Arrowleaf Sida,"[5]; Postemergence, 16 g ai/ha",30
same,Plant response rating: Arrowleaf Sida,"[5]; Postemergence, 31 g ai/ha",40
same,Plant response rating: Arrowleaf Sida,"[5]; Postemergence, 62 g ai/ha",50
same,Plant response rating: Arrowleaf Sida,"[5]; Postemergence, 125 g ai/ha",50
same,Plant response rating: Arrowleaf Sida,"[5]; Postemergence, 250 g ai/ha",70
same,Plant response rating: Arrowleaf Sida,"[5]; Preemergence, 16 g ai/ha",0
same,Plant response rating: Arrowleaf Sida,"[5]; Preemergence, 31 g ai/ha",0
same,Plant response rating: Arrowleaf Sida,"[5]; Preemergence, 62 g ai/ha",0
same,Plant response rating: Arrowleaf Sida,"[5]; Preemergence, 125 g ai/ha",0
same,Plant response rating: Arrowleaf Sida,"[5]; Preemergence, 250 g ai/ha",0
same,Plant response rating: Field Bindweed,"[6]; Postemergence, 16 g ai/ha",40
same,Plant response rating: Field Bindweed,"[6]; Postemergence, 31 g ai/ha",40
same,Plant response rating: Field Bindweed,"[6]; Postemergence, 62 g ai/ha",50
same,Plant response rating: Field Bindweed,"[6]; Postemergence, 125 g ai/ha",60
same,Plant response rating: Field Bindweed,"[6]; Postemergence, 250 g ai/ha",75
same,Plant response rating: Field Bindweed,"[6]; Preemergence, 16 g ai/ha",0
same,Plant response rating: Field Bindweed,"[6]; Preemergence, 31 g ai/ha",0
same,Plant response rating: Field Bindweed,"[6]; Preemergence, 62 g ai/ha",0
same,Plant response rating: Field Bindweed,"[6]; Preemergence, 125 g ai/ha",5
same,Plant response rating: Field Bindweed,"[6]; Preemergence, 250 g ai/ha",98
same,Plant response rating: Morningglory,[7]; 16 g ai/ha,0
same,Plant response rating: Morningglory,[7]; 31 g ai/ha,35
same,Plant response rating: Morningglory,[7]; 62 g ai/ha,60
same,Plant response rating: Morningglory,[7]; 125 g ai/ha,65
same,Plant response rating: Morningglory,[7]; 250 g ai/ha,70
same,Plant response rating: Beggarticks,"[8]; Postemergence, 16 g ai/ha",20
same,Plant response rating: Beggarticks,"[8]; Postemergence, 31 g ai/ha",30
same,Plant response rating: Beggarticks,"[8]; Postemergence, 62 g ai/ha",30
same,Plant response rating: Beggarticks,"[8]; Postemergence, 125 g ai/ha",35
same,Plant response rating: Beggarticks,"[8]; Postemergence, 250 g ai/ha",55
same,Plant response rating: Beggarticks,"[8]; Preemergence, 16 g ai/ha",0
same,Plant response rating: Beggarticks,"[8]; Preemergence, 31 g ai/ha",0
same,Plant response rating: Beggarticks,"[8]; Preemergence, 62 g ai/ha",0
same,Plant response rating: Beggarticks,"[8]; Preemergence, 125 g ai/ha",5
same,Plant response rating: Beggarticks,"[8]; Preemergence, 250 g ai/ha",20
same,"Plant response rating: Pigweed, Palmer","[9]; Postemergence, 16 g ai/ha",20
same,"Plant response rating: Pigweed, Palmer","[9]; Postemergence, 31 g ai/ha",20
same,"Plant response rating: Pigweed, Palmer","[9]; Postemergence, 62 g ai/ha",30
same,"Plant response rating: Pigweed, Palmer","[9]; Postemergence, 125 g ai/ha",80
same,"Plant response rating: Pigweed, Palmer","[9]; Postemergence, 250 g ai/ha",100
same,"Plant response rating: Pigweed, Palmer","[9]; Preemergence, 16 g ai/ha",0
same,"Plant response rating: Pigweed, Palmer","[9]; Preemergence, 31 g ai/ha",0
same,"Plant response rating: Pigweed, Palmer","[9]; Preemergence, 62 g ai/ha",25
same,"Plant response rating: Pigweed, Palmer","[9]; Preemergence, 125 g ai/ha",80
same,"Plant response rating: Pigweed, Palmer","[9]; Preemergence, 250 g ai/ha",100
same,"Plant response rating: Ryegrass, Italian","[10]; Postemergence, 16 g ai/ha",0
same,"Plant response rating: Ryegrass, Italian","[10]; Postemergence, 31 g ai/ha",0
same,"Plant response rating: Ryegrass, Italian","[10]; Postemergence, 62 g ai/ha",0
same,"Plant response rating: Ryegrass, Italian","[10]; Postemergence, 125 g ai/ha",0
same,"Plant response rating: Ryegrass, Italian","[10]; Postemergence, 250 g ai/ha",15
same,"Plant response rating: Ryegrass, Italian","[10]; Preemergence, 16 g ai/ha",20
same,"Plant response rating: Ryegrass, Italian","[10]; Preemergence, 31 g ai/ha",25
same,"Plant response rating: Ryegrass, Italian","[10]; Preemergence, 62 g ai/ha",25
same,"Plant response rating: Ryegrass, Italian","[10]; Preemergence, 125 g ai/ha",50
same,"Plant response rating: Ryegrass, Italian","[10]; Preemergence, 250 g ai/ha",75
same,Plant response rating: Sandbur,"[11]; Postemergence, 16 g ai/ha",10
same,Plant response rating: Sandbur,"[11]; Postemergence, 31 g ai/ha",20
same,Plant response rating: Sandbur,"[11]; Postemergence, 62 g ai/ha",20
same,Plant response rating: Sandbur,"[11]; Postemergence, 125 g ai/ha",35
same,Plant response rating: Sandbur,"[11]; Postemergence, 250 g ai/ha",75
same,Plant response rating: Sandbur,"[11]; Preemergence, 16 g ai/ha",0
same,Plant response rating: Sandbur,"[11]; Preemergence, 31 g ai/ha",5
same,Plant response rating: Sandbur,"[11]; Preemergence, 62 g ai/ha",40
same,Plant response rating: Sandbur,"[11]; Preemergence, 125 g ai/ha",70
same,Plant response rating: Sandbur,"[11]; Preemergence, 250 g ai/ha",98
same,Plant response rating: Ragweed,[12]; 16 g ai/ha,0
same,Plant response rating: Ragweed,[12]; 31 g ai/ha,0
same,Plant response rating: Ragweed,[12]; 62 g ai/ha,10
same,Plant response rating: Ragweed,[12]; 125 g ai/ha,35
same,Plant response rating: Ragweed,[12]; 250 g ai/ha,80
same,Plant response rating: Nightshade,[13]; 16 g ai/ha,0
same,Plant response rating: Nightshade,[13]; 31 g ai/ha,80
same,Plant response rating: Nightshade,[13]; 62 g ai/ha,98
same,Plant response rating: Nightshade,[13]; 125 g ai/ha,98
same,Plant response rating: Nightshade,[13]; 250 g ai/ha,98
same,Plant response rating: Lambsquarters,[14]; 16 g ai/ha,98
same,Plant response rating: Lambsquarters,[14]; 31 g ai/ha,98
same,Plant response rating: Lambsquarters,[14]; 62 g ai/ha,98
same,Plant response rating: Lambsquarters,[14]; 125 g ai/ha,98
same,Plant response rating: Lambsquarters,[14]; 250 g ai/ha,100
same,Plant response rating: Barnyardgrass,"[15]; Postemergence, 16 g ai/ha",0
same,Plant response rating: Barnyardgrass,"[15]; Postemergence, 31 g ai/ha",10
same,Plant response rating: Barnyardgrass,"[15]; Postemergence, 62 g ai/ha",20
same,Plant response rating: Barnyardgrass,"[15]; Postemergence, 125 g ai/ha",20
same,Plant response rating: Barnyardgrass,"[15]; Postemergence, 250 g ai/ha",65
same,Plant response rating: Barnyardgrass,"[15]; Preemergence, 16 g ai/ha",0
same,Plant response rating: Barnyardgrass,"[15]; Preemergence, 31 g ai/ha",20
same,Plant response rating: Barnyardgrass,"[15]; Preemergence, 62 g ai/ha",35
same,Plant response rating: Barnyardgrass,"[15]; Preemergence, 125 g ai/ha",80
same,Plant response rating: Barnyardgrass,"[15]; Preemergence, 250 g ai/ha",80
